In PMC11864979, “First-in-class ultralong-target-residence-time p38α inhibitors as a mitosis-targeted therapy for colorectal cancer” (Nature Cancer, 2025):
Like-named read-outs stand apart in the source and are kept apart here.

How the values were obtained:
Assay in all cases: selectivity profiling in a panel of 340 wild-type kinases (Reaction Biology Europe)
Type in all cases: binding
340 wild-type kinases [1] = molecular target: T1, 340 wild-type kinases (Homo sapiens, UniProt P08631)
T1 construct: purchased Reaction Biology Europe
T1 sequence (P08631 whole entry): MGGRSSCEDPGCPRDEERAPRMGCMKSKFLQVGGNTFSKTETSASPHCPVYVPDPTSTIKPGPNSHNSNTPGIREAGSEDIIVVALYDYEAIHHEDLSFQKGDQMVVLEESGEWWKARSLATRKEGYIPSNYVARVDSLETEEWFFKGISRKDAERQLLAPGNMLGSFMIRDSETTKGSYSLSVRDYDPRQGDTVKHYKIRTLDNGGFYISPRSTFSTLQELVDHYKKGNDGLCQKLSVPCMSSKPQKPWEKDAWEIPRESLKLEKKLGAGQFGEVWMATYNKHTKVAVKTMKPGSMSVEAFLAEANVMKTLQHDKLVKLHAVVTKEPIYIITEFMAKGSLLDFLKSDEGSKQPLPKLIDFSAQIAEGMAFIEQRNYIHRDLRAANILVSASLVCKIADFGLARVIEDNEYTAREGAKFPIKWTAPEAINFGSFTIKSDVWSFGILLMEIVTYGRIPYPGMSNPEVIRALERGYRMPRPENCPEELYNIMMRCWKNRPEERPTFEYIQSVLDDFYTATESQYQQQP

340 wild-type kinases [2] = molecular target: T2, 340 wild-type kinases (Homo sapiens, UniProt P35626)
T2 construct: purchased Reaction Biology Europe
T2 sequence (P35626 1-688): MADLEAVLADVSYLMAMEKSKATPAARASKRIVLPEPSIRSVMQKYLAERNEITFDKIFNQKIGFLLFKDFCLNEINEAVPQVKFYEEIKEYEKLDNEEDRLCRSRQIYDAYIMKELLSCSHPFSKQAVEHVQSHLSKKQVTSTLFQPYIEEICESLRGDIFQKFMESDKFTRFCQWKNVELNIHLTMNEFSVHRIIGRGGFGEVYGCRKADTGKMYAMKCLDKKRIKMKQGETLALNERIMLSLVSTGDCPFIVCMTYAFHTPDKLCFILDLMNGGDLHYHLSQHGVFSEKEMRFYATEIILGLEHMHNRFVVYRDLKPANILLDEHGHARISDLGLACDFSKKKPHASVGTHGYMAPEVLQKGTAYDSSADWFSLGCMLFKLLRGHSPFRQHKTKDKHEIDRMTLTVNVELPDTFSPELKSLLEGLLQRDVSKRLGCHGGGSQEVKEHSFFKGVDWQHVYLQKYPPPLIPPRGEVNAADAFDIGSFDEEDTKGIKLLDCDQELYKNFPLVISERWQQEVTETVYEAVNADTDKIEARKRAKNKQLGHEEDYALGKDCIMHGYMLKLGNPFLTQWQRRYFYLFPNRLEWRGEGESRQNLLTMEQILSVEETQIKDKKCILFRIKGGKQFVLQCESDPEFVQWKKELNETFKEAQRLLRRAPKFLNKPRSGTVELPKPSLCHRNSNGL

340 wild-type kinases [3] = molecular target: T3, 340 wild-type kinases (Homo sapiens, UniProt P43403)
T3 construct: purchased Reaction Biology Europe
T3 sequence (P43403 1-619): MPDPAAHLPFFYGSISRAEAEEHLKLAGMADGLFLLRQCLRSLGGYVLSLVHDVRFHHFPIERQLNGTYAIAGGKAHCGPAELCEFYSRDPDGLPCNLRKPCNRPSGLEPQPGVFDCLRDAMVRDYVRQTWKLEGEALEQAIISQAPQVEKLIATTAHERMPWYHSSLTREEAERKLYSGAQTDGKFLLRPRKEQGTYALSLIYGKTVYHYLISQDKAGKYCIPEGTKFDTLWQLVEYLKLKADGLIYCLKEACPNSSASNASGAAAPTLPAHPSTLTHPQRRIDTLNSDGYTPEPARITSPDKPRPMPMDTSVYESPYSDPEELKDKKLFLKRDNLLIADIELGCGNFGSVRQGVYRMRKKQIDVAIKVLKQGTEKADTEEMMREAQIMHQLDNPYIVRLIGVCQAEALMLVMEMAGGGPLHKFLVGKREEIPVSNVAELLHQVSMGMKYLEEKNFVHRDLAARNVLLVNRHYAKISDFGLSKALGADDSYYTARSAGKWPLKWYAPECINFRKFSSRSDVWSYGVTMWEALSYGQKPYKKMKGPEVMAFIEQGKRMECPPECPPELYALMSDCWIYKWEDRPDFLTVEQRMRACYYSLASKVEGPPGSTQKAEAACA

340 wild-type kinases [4] = molecular target: T4, 340 wild-type kinases (Homo sapiens, UniProt Q00526)
T4 construct: purchased Reaction Biology Europe
T4 sequence (Q00526 whole entry): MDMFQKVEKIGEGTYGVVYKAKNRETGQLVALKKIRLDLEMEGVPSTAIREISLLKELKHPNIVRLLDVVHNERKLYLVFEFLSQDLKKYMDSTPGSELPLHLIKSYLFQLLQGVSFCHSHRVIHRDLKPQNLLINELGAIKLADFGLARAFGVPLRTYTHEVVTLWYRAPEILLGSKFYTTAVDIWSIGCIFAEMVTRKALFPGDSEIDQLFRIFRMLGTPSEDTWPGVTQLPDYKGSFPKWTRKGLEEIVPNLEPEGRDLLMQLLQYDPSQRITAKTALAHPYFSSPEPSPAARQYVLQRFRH

340 wild-type kinases [5] = molecular target: T5, 340 wild-type kinases (Homo sapiens, UniProt Q00535)
T5 construct: purchased Reaction Biology Europe
T5 sequence (Q00535 whole entry): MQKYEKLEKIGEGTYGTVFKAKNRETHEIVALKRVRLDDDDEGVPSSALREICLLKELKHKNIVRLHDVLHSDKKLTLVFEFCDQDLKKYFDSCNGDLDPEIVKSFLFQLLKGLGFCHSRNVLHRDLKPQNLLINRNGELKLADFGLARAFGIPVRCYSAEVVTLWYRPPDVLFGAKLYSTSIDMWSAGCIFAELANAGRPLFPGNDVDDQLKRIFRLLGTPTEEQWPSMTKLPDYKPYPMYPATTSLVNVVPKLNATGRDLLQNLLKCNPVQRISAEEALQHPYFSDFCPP

340 wild-type kinases [6] = molecular target: T6, 340 wild-type kinases (Homo sapiens, UniProt Q13464)
T6 construct: purchased Reaction Biology Europe
T6 sequence (Q13464 whole entry): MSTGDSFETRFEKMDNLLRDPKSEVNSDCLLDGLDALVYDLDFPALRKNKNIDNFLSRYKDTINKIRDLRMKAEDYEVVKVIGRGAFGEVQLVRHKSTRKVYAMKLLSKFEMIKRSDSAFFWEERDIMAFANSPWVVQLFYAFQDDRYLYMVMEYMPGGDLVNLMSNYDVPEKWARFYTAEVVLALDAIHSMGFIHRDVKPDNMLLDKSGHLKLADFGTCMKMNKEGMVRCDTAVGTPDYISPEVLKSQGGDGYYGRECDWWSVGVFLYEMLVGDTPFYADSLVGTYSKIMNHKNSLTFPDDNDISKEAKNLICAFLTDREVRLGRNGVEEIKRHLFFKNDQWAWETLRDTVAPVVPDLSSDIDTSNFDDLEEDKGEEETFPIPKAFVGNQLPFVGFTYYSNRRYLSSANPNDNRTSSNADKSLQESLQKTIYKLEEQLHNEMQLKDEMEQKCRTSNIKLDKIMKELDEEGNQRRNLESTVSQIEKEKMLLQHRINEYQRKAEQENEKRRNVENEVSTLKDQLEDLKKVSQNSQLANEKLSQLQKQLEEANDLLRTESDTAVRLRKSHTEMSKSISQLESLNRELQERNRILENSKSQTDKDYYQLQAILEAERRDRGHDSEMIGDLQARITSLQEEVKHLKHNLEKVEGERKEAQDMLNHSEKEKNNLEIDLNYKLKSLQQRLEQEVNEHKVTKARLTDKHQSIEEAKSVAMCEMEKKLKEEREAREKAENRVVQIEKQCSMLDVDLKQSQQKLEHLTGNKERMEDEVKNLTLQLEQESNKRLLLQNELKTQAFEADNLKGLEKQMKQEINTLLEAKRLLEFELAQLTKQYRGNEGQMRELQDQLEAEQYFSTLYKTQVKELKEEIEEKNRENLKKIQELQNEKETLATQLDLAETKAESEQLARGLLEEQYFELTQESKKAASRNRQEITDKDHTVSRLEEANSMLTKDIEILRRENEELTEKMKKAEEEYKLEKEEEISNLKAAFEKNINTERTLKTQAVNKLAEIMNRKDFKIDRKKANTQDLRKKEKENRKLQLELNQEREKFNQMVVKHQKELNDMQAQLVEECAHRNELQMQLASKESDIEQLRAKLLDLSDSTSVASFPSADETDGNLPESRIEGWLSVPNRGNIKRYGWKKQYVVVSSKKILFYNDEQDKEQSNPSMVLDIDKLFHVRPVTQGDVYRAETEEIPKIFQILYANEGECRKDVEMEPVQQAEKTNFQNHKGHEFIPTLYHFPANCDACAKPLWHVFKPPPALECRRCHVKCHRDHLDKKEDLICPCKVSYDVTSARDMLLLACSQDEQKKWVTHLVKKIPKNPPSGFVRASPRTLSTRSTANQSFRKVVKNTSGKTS

340 wild-type kinases [7] = molecular target: T7, 340 wild-type kinases (Homo sapiens, UniProt Q6P5Z2)
T7 construct: purchased Reaction Biology Europe
T7 sequence (Q6P5Z2 whole entry): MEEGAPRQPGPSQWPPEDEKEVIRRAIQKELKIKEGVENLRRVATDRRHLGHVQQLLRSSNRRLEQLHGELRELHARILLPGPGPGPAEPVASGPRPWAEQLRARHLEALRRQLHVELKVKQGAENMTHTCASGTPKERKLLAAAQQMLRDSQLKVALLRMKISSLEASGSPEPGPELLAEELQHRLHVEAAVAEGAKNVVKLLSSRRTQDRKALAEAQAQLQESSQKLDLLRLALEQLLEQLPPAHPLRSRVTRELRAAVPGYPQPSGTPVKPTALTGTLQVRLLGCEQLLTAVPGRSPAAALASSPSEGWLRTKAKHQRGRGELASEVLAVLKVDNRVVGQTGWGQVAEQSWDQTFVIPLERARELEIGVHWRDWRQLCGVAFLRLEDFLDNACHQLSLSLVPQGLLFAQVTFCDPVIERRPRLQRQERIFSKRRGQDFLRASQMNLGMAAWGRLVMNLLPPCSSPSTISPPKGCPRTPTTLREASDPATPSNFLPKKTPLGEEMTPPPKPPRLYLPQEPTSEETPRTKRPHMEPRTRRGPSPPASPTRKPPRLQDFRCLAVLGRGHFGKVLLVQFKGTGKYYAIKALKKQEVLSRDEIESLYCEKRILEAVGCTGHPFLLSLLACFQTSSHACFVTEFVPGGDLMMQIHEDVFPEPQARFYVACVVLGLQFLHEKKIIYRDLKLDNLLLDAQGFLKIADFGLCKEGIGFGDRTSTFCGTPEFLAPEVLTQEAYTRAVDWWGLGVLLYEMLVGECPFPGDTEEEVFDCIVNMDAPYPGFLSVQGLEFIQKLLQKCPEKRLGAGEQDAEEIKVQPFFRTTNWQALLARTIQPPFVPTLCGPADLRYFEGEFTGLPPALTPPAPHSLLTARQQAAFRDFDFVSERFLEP

340 wild-type kinases [8] = molecular target: T8, 340 wild-type kinases (Homo sapiens, UniProt Q96BR1)
T8 construct: purchased Reaction Biology Europe
T8 sequence (Q96BR1 1-496): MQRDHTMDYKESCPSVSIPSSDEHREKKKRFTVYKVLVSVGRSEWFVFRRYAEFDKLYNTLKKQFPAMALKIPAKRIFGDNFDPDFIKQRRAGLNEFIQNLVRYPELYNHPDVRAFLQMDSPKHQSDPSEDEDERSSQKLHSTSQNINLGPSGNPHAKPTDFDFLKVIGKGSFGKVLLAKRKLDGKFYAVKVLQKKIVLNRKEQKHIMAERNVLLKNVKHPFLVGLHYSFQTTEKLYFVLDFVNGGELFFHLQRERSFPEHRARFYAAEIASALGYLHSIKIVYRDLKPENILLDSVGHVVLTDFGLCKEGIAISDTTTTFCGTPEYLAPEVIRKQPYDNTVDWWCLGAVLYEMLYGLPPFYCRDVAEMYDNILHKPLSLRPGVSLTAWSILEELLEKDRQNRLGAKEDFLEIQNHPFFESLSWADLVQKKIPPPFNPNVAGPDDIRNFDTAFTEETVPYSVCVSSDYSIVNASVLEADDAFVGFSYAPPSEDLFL

340 wild-type kinases [9] = molecular target: T9, 340 wild-type kinases (Homo sapiens, UniProt Q9HCP0)
T9 construct: purchased Reaction Biology Europe
T9 sequence (Q9HCP0 whole entry): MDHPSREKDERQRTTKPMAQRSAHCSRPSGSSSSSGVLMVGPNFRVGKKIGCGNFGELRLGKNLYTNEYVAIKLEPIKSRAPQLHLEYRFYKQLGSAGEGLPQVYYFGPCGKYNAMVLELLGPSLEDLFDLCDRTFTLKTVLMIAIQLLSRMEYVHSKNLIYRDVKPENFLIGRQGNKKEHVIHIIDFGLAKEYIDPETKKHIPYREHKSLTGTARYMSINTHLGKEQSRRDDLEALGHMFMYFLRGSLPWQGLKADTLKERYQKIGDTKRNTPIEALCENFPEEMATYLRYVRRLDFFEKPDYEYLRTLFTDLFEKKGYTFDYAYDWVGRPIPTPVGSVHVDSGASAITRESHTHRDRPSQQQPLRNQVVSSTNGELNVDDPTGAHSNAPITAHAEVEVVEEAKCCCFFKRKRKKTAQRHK

For CNC(=O)c1ccc2c(c1)C(=O)c1ccc(Nc3ccc(F)c(NC(=O)C4CC4)c3)cc1CC2 [Compound 2015], the remaining activity at 0.2 µM (340 wild-type kinases [1]; 0.2 µM 2015, read-out: HCK residual activity) was 124%, the remaining activity at 1 µM (340 wild-type kinases [1]; 1 µM 2015, read-out: HCK residual activity) was 109% and the remaining activity at 0.2 µM (340 wild-type kinases [1]; HCK, 0.2 µM, read-out: residual activity) was 124%. The remaining activity at 1 µM (340 wild-type kinases [1]; HCK, 1 µM, read-out: residual activity) was 109%, the remaining activity at 0.2 µM (340 wild-type kinases [2]; 0.2 µM 2015, read-out: GRK3 residual activity) was 117% and the remaining activity at 1 µM (340 wild-type kinases [2]; 1 µM 2015, read-out: GRK3 residual activity) was 99.7%. For the same compound, the remaining activity at 0.2 µM (340 wild-type kinases [2]; GRK3, 0.2 µM, read-out: residual activity) was 117%, the remaining activity at 1 µM (340 wild-type kinases [2]; GRK3, 1 µM, read-out: residual activity) was 99.7% and the remaining activity at 0.2 µM (340 wild-type kinases [3]; 0.2 µM 2015, read-out: ZAP70 residual activity) was 122%. It also gave a remaining activity at 1 µM (340 wild-type kinases [3]; 1 µM 2015, read-out: ZAP70 residual activity) of 100%, a remaining activity at 0.2 µM (340 wild-type kinases [3]; ZAP70, 0.2 µM, read-out: residual activity) of 122% and a remaining activity at 1 µM (340 wild-type kinases [3]; ZAP70, 1 µM, read-out: residual activity) of 100%. The remaining activity at 0.2 µM (340 wild-type kinases [4]; 0.2 µM 2015, read-out: CDK3/CycC residual activity) was 104%, the remaining activity at 0.2 µM (340 wild-type kinases [4]; 0.2 µM 2015, read-out: CDK3/CycE1 residual activity) was 88.9% and the remaining activity at 1 µM (340 wild-type kinases [4]; 1 µM 2015, read-out: CDK3/CycC residual activity) was 96.3%. The remaining activity at 1 µM (340 wild-type kinases [4]; 1 µM 2015, read-out: CDK3/CycE1 residual activity) was 81.7%, the remaining activity at 0.2 µM (340 wild-type kinases [4]; CDK3/CycC, 0.2 µM, read-out: residual activity) was 104% and the remaining activity at 1 µM (340 wild-type kinases [4]; CDK3/CycC, 1 µM, read-out: residual activity) was 96.3%. For the same compound, the remaining activity at 0.2 µM (340 wild-type kinases [4]; CDK3/CycE1, 0.2 µM, read-out: residual activity) was 88.9%, the remaining activity at 1 µM (340 wild-type kinases [4]; CDK3/CycE1, 1 µM, read-out: residual activity) was 81.7% and the remaining activity at 0.2 µM (340 wild-type kinases [5]; 0.2 µM 2015, read-out: CDK5/p25NCK residual activity) was 110%. The remaining activity at 0.2 µM (340 wild-type kinases [5]; 0.2 µM 2015, read-out: CDK5/p35NCK residual activity) was 114%, the remaining activity at 1 µM (340 wild-type kinases [5]; 1 µM 2015, read-out: CDK5/p25NCK residual activity) was 100% and the remaining activity at 1 µM (340 wild-type kinases [5]; 1 µM 2015, read-out: CDK5/p35NCK residual activity) was 103%. The remaining activity at 0.2 µM (340 wild-type kinases [5]; CDK5/p25NCK, 0.2 µM, read-out: residual activity) was 110%, the remaining activity at 1 µM (340 wild-type kinases [5]; CDK5/p25NCK, 1 µM, read-out: residual activity) was 100% and the remaining activity at 0.2 µM (340 wild-type kinases [5]; CDK5/p35NCK, 0.2 µM, read-out: residual activity) was 114%. For the same compound, the remaining activity at 1 µM (340 wild-type kinases [5]; CDK5/p35NCK, 1 µM, read-out: residual activity) was 103%, the remaining activity at 0.2 µM (340 wild-type kinases [6]; 0.2 µM 2015, read-out: ROCK1 residual activity) was 95.1% and the remaining activity at 1 µM (340 wild-type kinases [6]; 1 µM 2015, read-out: ROCK1 residual activity) was 87.2%. For the same compound, the remaining activity at 0.2 µM (340 wild-type kinases [6]; ROCK1, 0.2 µM, read-out: residual activity) was 95.1%, the remaining activity at 1 µM (340 wild-type kinases [6]; ROCK1, 1 µM, read-out: residual activity) was 87.2% and the remaining activity at 0.2 µM (340 wild-type kinases [7]; 0.2 µM 2015, read-out: PKN3 residual activity) was 84.5%. The remaining activity at 1 µM (340 wild-type kinases [7]; 1 µM 2015, read-out: PKN3 residual activity) was 95.6%, the remaining activity at 0.2 µM (340 wild-type kinases [7]; PKN3, 0.2 µM, read-out: residual activity) was 84.5% and the remaining activity at 1 µM (340 wild-type kinases [7]; PKN3, 1 µM, read-out: residual activity) was 95.6%. The remaining activity at 0.2 µM (340 wild-type kinases [8]; 0.2 µM 2015, read-out: SGK3 residual activity) was 107%, the remaining activity at 1 µM (340 wild-type kinases [8]; 1 µM 2015, read-out: SGK3 residual activity) was 92.1% and the remaining activity at 0.2 µM (340 wild-type kinases [8]; SGK3, 0.2 µM, read-out: residual activity) was 107%. For the same compound, the remaining activity at 1 µM (340 wild-type kinases [8]; SGK3, 1 µM, read-out: residual activity) was 92%, the remaining activity at 0.2 µM (340 wild-type kinases [9]; 0.2 µM 2015, read-out: CK1gamma1 residual activity) was 115% and the remaining activity at 1 µM (340 wild-type kinases [9]; 1 µM 2015, read-out: CK1gamma1 residual activity) was 107%. For the same compound, the remaining activity at 0.2 µM (340 wild-type kinases [9]; CK1gamma1, 0.2 µM, read-out: residual activity) was 115% and the remaining activity at 1 µM (340 wild-type kinases [9]; CK1gamma1, 1 µM, read-out: residual activity) was 107%.
